These results are taken from patent US20250312327A1, “COMPOSITION FOR COMBINATION THERAPY, COMPRISING 2,3,5-SUBSTITUTED THIOPHENE COMPOUND” (PHAROS IBIO CO., LTD, priority 2021, published 2025).

Holding throughout (assay): CellTiter-Glo assay, drug administered alone
What all share (assay type): cell-based

Test [1] deals with THP-1 leukemia cell line. As to conditions: Homo sapiens.
Test [2] deals with BDCM leukemia cell line.
The test system of test [3] is BDCM leukemia cell line. As to conditions: 72 h. Here is the method:
(§1) The first and second tests were performed in triplicate on the above cell lines while reducing the concentration of venetoclax by half each time from 100 μM, and the third test was performed in triplicate on the BDCM cell line while reducing the concentration of venetoclax by half each time from 100 μM, and performed in triplicate on HL-60, MolM13, MolM14, and MV4-11 cell lines while reducing the concentration of venetoclax by half each time from 2.5 μM. The fourth test was performed in triplicate on HL-60, MolM13, MolM14, and MV4-11 cell lines while reducing the concentration by half each time from 2.5 μM.
(§2) Specifically, in the first and second tests, a 10-fold diluted solution was prepared by dissolving 50 μL of 10 mM venetoclax in 450 μL of solvent. 250 μL of the solution was serially diluted ½, an 8E-tube was filled with 250 μL of each dilution, and 80 μL of each cell line was dispensed into each well of a 96-well plate. Thereafter, 10 μL of each cell line was dispensed using JANUS and incubated for 72 hours under CO2. Celltiter-Glo assay was performed and then IC50 was calculated.
(§3) In the third test, for the BCDM cell line, a 10-fold diluted solution was prepared by dissolving 15 μL of 10 mM venetoclax in 135 μL of solvent. 100 μL of the solution was serially diluted ½, an 8E-tube was filled with 100 μL of each dilution, and the cell line was dispensed into a 96-well plate. Thereafter, 25 μL of the cell line was dispensed using JANUS and incubated for 72 hours under CO2. Celltiter-Glo assay was performed and then IC50 was calculated. Meanwhile, for the HL-60, MolM13, MolM14, and MV4-11 cell lines, a 10-fold diluted solution was prepared by dissolving […] of solvent. 200 μL of the solution was serially diluted ½, an 8E-tube was filled with 200 μL of each dilution, and each of the cell lines was dispensed into a 96-well plate. Thereafter, 60 μL of each cell line was dispensed using JANUS and incubated for 72 hours under CO2. Celltiter-Glo assay was performed and then IC50 was calculated.
(§4) The first and second tests were performed in triplicate on the above cell lines while reducing the concentration of 5-azacytidine by half each time from 100 μM. Specifically, in the first and second tests, a 10-fold diluted solution was prepared by dissolving 15 μL of 20 mM 5-azacytidine in 285 μL of solvent. 250 μL of the solution was serially diluted ½, an 8E-tube was filled with 250 μL of each dilution, and 80 μL of each cell line (3,000 cells) was dispensed into each well of a 96-well plate. Thereafter, 10 μL of each cell line was dispensed using JANUS and incubated for 72 hours under CO2. Celltiter-Glo assay was performed and then IC50 was calculated.
as §4, with “cytarabine” for “5-azacytidine”, “50,000” for “100”, “10” for “15”, “50” for “20”, “490” for “285”

Test [4] has as its system U937 leukemia cell line. As to conditions: Homo sapiens.
Test [5] relates to HL-60 leukemia cell line. The note with it: Homo sapiens.
The test system of test [6] is THP-1 leukemia cell line. As to conditions: Homo sapiens, THP-1, 72 h. Here is the method: as §1, §2, §4
as §4, with “cytarabine” for “5-azacytidine”, “50,000” for “100”, “10” for “15”, “50” for “20”, “490” for “285”

Test [7] concerns U937 leukemia cell line. The note with it: Homo sapiens, U-937, 72 h. The procedure:
as §1, §2, §4
as §4, with “cytarabine” for “5-azacytidine”, “50,000” for “100”, “10” for “15”, “50” for “20”, “490” for “285”

For test [8], the system named is MolM13 leukemia cell line. The note with it: Homo sapiens. The procedure: as §1, §2, §3
(§5) The fourth test was performed on HL-60, MolM13, MolM14, and MV4-11 cell lines in the same manner as the third test.
as §4
as §4, with “cytarabine” for “5-azacytidine”, “50,000” for “100”, “10” for “15”, “50” for “20”, “490” for “285”

Test [9] has as its system MV4-11 leukemia cell line. The note with it: Homo sapiens. The procedure:
as §1, §2, §3, §5, §4
as §4, with “cytarabine” for “5-azacytidine”, “50,000” for “100”, “10” for “15”, “50” for “20”, “490” for “285”

Test [10] concerns HL-60 leukemia cell line. As to conditions: Homo sapiens, HL-60, 72 h, 72 hours. The procedure:
as §1, §2, §3, §5, §4
as §4, with “cytarabine” for “5-azacytidine”, “50,000” for “100”, “10” for “15”, “50” for “20”, “490” for “285”

Test [11] concerns MolM14 leukemia cell line. As to conditions: Homo sapiens. Here is the method:
as §1, §2, §3, §5, §4
as §4, with “cytarabine” for “5-azacytidine”, “50,000” for “100”, “10” for “15”, “50” for “20”, “490” for “285”

Where [12] appears, read: cytarabine administered alone, Table 13, read-out: IC50 Cytarabine.
Setting [13] is: cytarabine alone, read-out: IC50 First test.
Where [14] appears, read: cytarabine alone, read-out: IC50 Second test.
[15] abbreviates: azacitidine administered alone, Table 10, read-out: IC50 Azacitidine.
Where [16] appears, read: 5-azacytidine alone, read-out: IC50 First test.
Setting [17] is: 5-azacytidine alone, read-out: IC50 Second test.

Where two headings read alike, the source gives them in different places.

What is called IC50 is the point on the concentration scale where inhibition reaches its midpoint. For `Nc1ccn([C@@H]2O[C@H](CO)[C@@H](O)[C@@H]2O)c(=O)n1` [Cytarabine], the half-inhibitory concentration (IC50) was found to be 10.6 nM in the test with THP-1 leukemia cell line [1] (THP-1, cytarabine administered alone, Table 13, read-out: IC50 Cytarabine); 2340 nM in the test with BDCM leukemia cell line [2] (setting [12]); 2830 nM in the test on BDCM leukemia cell line [3] (setting [13]); 4480 nM in the test with BDCM leukemia cell line [3] (setting [14]); 9.25 nM in the test on U937 leukemia cell line [4] (U-937, cytarabine administered alone, Table 13, read-out: IC50 Cytarabine); 170 nM in the test on HL-60 leukemia cell line [5] (HL-60, cytarabine administered alone, Table 13, read-out: IC50 Cytarabine). The IC50 turned out to be 11.2 nM in the test on THP-1 leukemia cell line [6] (setting [13]); 15.3 nM in the test on THP-1 leukemia cell line [6] (setting [14]); 18.3 nM in the test on U937 leukemia cell line [7] (setting [13]); 18.4 nM in the test on U937 leukemia cell line [7] (setting [14]); 39 nM in [8] (MOLM-13, cytarabine alone, MolM13, 72 hours, read-out: IC50 First test); 41.8 nM in [8] (MOLM-13, cytarabine alone, MolM13, 72 hours, read-out: IC50 Second test). Besides, the IC50 in [8] (cytarabine administered alone, MolM 13, Table 13, read-out: IC50 Cytarabine) came out at 29.6 nM; in [9] (setting [12]), 81 nM; in test [9] (cytarabine alone, 72 hours, read-out: IC50 First test), 100 nM; in [9] (cytarabine alone, 72 hours, read-out: IC50 Second test) it was 108 nM; in the test with HL-60 leukemia cell line [10] (setting [13]), 221 nM; in the test on HL-60 leukemia cell line [10] (setting [14]), 163 nM. Also, the IC50 in [11] (MOLM-14, 72 h, cytarabine alone, MolM14, 72 hours, read-out: IC50 First test) worked out at 99 nM; in test [11] (MOLM-14, 72 h, cytarabine alone, MolM14, 72 hours, read-out: IC50 Second test) it was 93.3 nM; in test [11] (MOLM-14, cytarabine administered alone, MolM 14, Table 13, read-out: IC50 Cytarabine) it was 84.7 nM.
Take `Nc1ncn([C@@H]2O[C@H](CO)[C@@H](O)[C@H]2O)c(=O)n1` [5-azacytidine]: the concentration for half-maximal inhibition (IC50) in the test with THP-1 leukemia cell line [1] (THP-1, azacitidine administered alone, Table 10, read-out: IC50 Azacitidine) is 3380 nM; in the test on BDCM leukemia cell line [2] (setting [15]) it was 98200 nM; in the test on BDCM leukemia cell line [3] (setting [16]), 14800 nM; with BDCM leukemia cell line [3] (setting [17]), 23600 nM; with U937 leukemia cell line [4] (U-937, azacitidine administered alone, Table 10, read-out: IC50 Azacitidine), 3060 nM; in the test on HL-60 leukemia cell line [5] (HL-60, azacitidine administered alone, Table 10, read-out: IC50 Azacitidine) it was 9660 nM. For the same molecule, the IC50 is 6080 nM in the test with THP-1 leukemia cell line [6] (setting [16]); 6380 nM in the test on THP-1 leukemia cell line [6] (setting [17]); 1910 nM in the test with U937 leukemia cell line [7] (setting [16]); 2540 nM with U937 leukemia cell line [7] (setting [17]); 1710 nM in test [8] (MOLM-13, 5-azacytidine alone, MolM13, 72 hours, read-out: IC50 First test); 1410 nM in [8] (MOLM-13, 5-azacytidine alone, MolM13, 72 hours, read-out: IC50 Second test). The IC50 was found to be 1380 nM in [8] (azacitidine administered alone, MolM 13, Table 10, read-out: IC50 Azacitidine); 3050 nM in test [9] (5-azacytidine alone, 72 hours, read-out: IC50 First test); 2450 nM in [9] (5-azacytidine alone, 72 hours, read-out: IC50 Second test); 2050 nM in test [9] (setting [15]); 14700 nM with HL-60 leukemia cell line [10] (setting [16]); 13200 nM with HL-60 leukemia cell line [10] (setting [17]). In addition, the IC50 in test [11] (MOLM-14, 72 h, 5-azacytidine alone, MolM14, 72 hours, read-out: IC50 First test) stood at 3880 nM; in test [11] (MOLM-14, 72 h, 5-azacytidine alone, MolM14, 72 hours, read-out: IC50 Second test), 2820 nM; in test [11] (MOLM-14, azacitidine administered alone, MolM 14, Table 10, read-out: IC50 Azacitidine) it was 1590 nM.
